Experimental findings from ChEMBL document CHEMBL1130597, “Design of a high affinity peptidomimetic opioid agonist from peptide pharmacophore models” (Bioorg Med Chem Lett, 1998) are described below.

For the test, the target named is Mu-type opioid receptor (Rattus norvegicus, UniProt P33535). Put plainly: Compound was tested for its ability to stimulate [35S]GTP-gamma-S, binding to membranes from C6 glioma cells stably expressing rat mu opioid receptor. The test is classed as functional, cell membranes.
Mu-type opioid receptor, sequence (P33535 whole entry): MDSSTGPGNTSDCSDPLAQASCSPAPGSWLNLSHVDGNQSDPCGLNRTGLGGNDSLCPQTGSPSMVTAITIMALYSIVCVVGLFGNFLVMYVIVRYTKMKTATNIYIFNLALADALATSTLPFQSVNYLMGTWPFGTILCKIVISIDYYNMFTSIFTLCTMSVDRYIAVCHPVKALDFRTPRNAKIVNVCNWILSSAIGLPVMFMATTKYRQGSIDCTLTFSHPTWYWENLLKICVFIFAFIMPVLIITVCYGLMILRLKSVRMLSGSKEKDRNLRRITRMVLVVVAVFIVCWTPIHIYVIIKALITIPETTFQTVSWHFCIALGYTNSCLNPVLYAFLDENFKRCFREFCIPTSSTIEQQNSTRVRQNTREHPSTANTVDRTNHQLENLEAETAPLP

In turn, `CC1(C)SSC[C@@H](NC(=O)[C@@H](N)Cc2ccc(O)cc2)C(=O)N[C@@H](Cc2ccccc2)C(=O)N[C@@H]1C(N)=O` gave an EC50 of 18.2 nM.

The EC50 is the midpoint of the concentration-response curve.
